{
  "source": "patent US20260008862A1",
  "about": "“Bispecific Anti-BCMA x Anti-CD3 Antibodies and Uses Thereof” (Regeneron Pharmaceuticals, Inc., priority 2018, published 2026)",
  "key": {"[1]": {"tested_on": "Jurkat/NFATLuc.3C7 cells + NCI-H929 cells", "experiment": "Jurkat/NFATLuc reporter bioassay with NCI-H929 cells", "format": "cell-based", "conditions": "highest RLU / lowest RLU", "method": "Activity of the anti-BCMA×anti-CD3 bispecific antibodies were assessed in a Jurkat/NFATLuc reporter bioassay utilizing several cell lines with varying levels of BCMA surface expression. The Jurkat cells were engineered to express an NFAT-luciferase reporter (Jurkat/NFATLuc.3C7), and 50,000 Jurkat reporter cells were combined with 50,000 BCMA positive (Daudi, MM1-S, NCI-H929, OPM-2, RPMI-8226, MOLP-8, or Raji) or BCMA negative (HEK293) cells in Thermo Nunclon delta 96 well white microwell plates (Thermo Scientific, Cat #136102) in 50 ul of assay media (RPMI media with 10% FBS and 1% P/S/G). Three-fold serial dilutions of the BCMA×CD3 bispecific antibodies (mAb25441 D or mAb25442D), or a bivalent anti-BCMA antibody (mAb21581) were immediately added in 50 μL of assay buffer. The plates were gently agitated and incubated in a 37° C., 5% CO2 incubator for 4-6 hours. NFAT-Luciferase activity was determined using Promega One-Glo (Cat #E6130) and a Perkin Elmer Envision plate reader. RLU were plotted in GraphPad Prism using a four-parameter logistic equation over a 12-point response curve to calculate EC50 values. […] The signal to noise (S:N) is determined by taking the ratio of the highest RLU on the curve to the lowest."}, "[2]": {"tested_on": "B16/BCMA tumors", "experiment": "Syngenic B16/BCMA tumor model in CD3-humanized mice (Example 16)", "format": "in vivo, mouse", "conditions": "for Average Tumor Size (mm3) ± SEM on Day 5 / Average Tumor Size (mm3) ± SEM on Day 10 / Average Tumor Size (mm3) ± SEM on Day 14 / Average Tumor Size (mm3) ± SEM on Day 18: B16/BCMA Tumor", "method": "(§1) To determine the in vivo efficacy of anti-BCMA×anti-CD3 bispecific antibodies (Abs), a syngenic tumor study was performed in mice expressing human CD3. C57BL/6 mice that express human CD3deg in place of murine CD3deg (CD3-humanized mice) were subcutaneously implanted with either 0.5×10^6 B16 melanoma cells that have been engineered to express full-length human BCMA (B16/BCMA cells) or 1×10^6 MC38 colon carcinoma cells that have been engineered to express full-length human BCMA (MC38/BCMA). […] The mice were administered these Abs twice more on days 4 and 7 for a total of three doses, and tumor growth was assessed throughout the experiment.\n(§2) Implantation and measurement of syngenic tumors: C57BL/6 mice that express human CD3deg in place of murine CD3deg (CD3-humanized mice) were subcutaneously implanted with either 0.5×10^6 B16F10 melanoma cells that have been engineered to express full-length human BCMA (B16/BCMA cells) or 1×10^6 MC38 colon carcinoma cells that have been engineered to express full-length human BCMA (MC38/BCMA). […] The mice were administered these Abs twice more on days 4 and 7 for a total of three doses, and tumor growth was assessed throughout the experiment.\n(§3) Calculation of syngenic tumor growth and inhibition: In order to determine tumor volume by external caliper, the greatest longitudinal diameter (length in mm) and the greatest transverse diameter (width in mm) were determined. Tumor volumes based on caliper measurements were calculated by the formula: Volume (mm^3)=(length×width^2)/2."}, "[3]": {"tested_on": "MC38/BCMA tumors", "experiment": "Syngenic MC38/BCMA tumor model in CD3-humanized mice (Example 16)", "format": "in vivo, mouse", "method": "as §1, §2, §3"}, "[4]": {"tested_on": "MC38/BCMA tumors", "experiment": "Syngenic MC38/BCMA tumor model, combination with anti-PD-1, second experiment (Example 21)", "format": "in vivo, mouse", "conditions": "REGN5458 0.04 or 0.4 mg/kg plus anti-PD-1 4 mg/kg", "source_text": "Implantation and measurement of syngenic tumors: C57BL/6 mice that express human CD3deg in place of murine CD3deg (CD3-humanized mice) were subcutaneously implanted with 1×10^6 MC38 colon carcinoma cells that have been engineered to express full-length human BCMA (MC38/BCMA).\nas §3"}, "[5]": {"tested_on": "monkey BCMA-MMH", "sequence (as listed by the source)": "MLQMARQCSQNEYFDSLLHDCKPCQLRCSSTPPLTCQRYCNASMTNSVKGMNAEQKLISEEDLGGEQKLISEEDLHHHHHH", "experiment": "SPR (Biacore 4000) binding kinetics to monkey BCMA-MMH", "conditions": "25° C.", "method": "The CM5 Biacore sensor surface was derivatized by amine coupling with a monoclonal mouse anti-human Fc antibody (GE, #BR-11008-39) to capture purified anti-BCMA mAbs and anti-BCMA×anti-CD3 bispecific mAbs. All Biacore binding studies were performed in a buffer composed of 0.01 M HEPES pH 7.4, 0.15M NaCl, 3 mM EDTA, 0.05% v/v Surfactant P20 (HBS-ET running buffer). […] Antigen samples were then injected over the anti-BCMA and anti-BCMA×anti-CD3 bispecific mAbs captured surfaces at a flow rate of 30 μL/minute. Antibody-reagent association was monitored for 5 minutes while dissociation in HBS-ET running buffer was monitored for 10 minutes. All of the binding kinetics experiments were performed at 25° C. Kinetic association (ka) and dissociation (kd) rate constants were determined by fitting the real-time sensorgrams to a 1:1 binding model using Scrubber 2.0c curve fitting software. Binding dissociation equilibrium constants (KD) and dissociative half-lives (t½) were calculated from the kinetic rate constants as: […]"}},
  "data": [
    {"substance": "REGN5458: anti-BCMA×anti-CD3 bispecific antibody: BCMA HCVR of mAb21581 (SEQ 66), CD3 HCVR of mAb7221G (SEQ 90), common LCVR SEQ 82", "values": [
      {"measurement": "S:N", "setting": "[1]", "result": 39},
      {"measurement": "Average Tumor Size (mm3) ± SEM on Day 5", "setting": "[2]; 0.04 mg/kg", "result": "3.3 ± 2.2", "unit": "mm3"},
      {"measurement": "Average Tumor Size (mm3) ± SEM on Day 10", "setting": "[2]; 0.04 mg/kg", "result": "15.4 ± 12.5", "unit": "mm3"},
      {"measurement": "Average Tumor Size (mm3) ± SEM on Day 14", "setting": "[2]; 0.04 mg/kg", "result": "81.4 ± 49.2", "unit": "mm3"},
      {"measurement": "Average Tumor Size (mm3) ± SEM on Day 18", "setting": "[2]; 0.04 mg/kg", "result": "127.2 ± 63.9", "unit": "mm3"},
      {"measurement": "Average Tumor Size (mm3) ± SEM on Day 5", "setting": "[2]; 0.4 mg/kg", "result": "0.0 ± 0.0", "unit": "mm3"},
      {"measurement": "Average Tumor Size (mm3) ± SEM on Day 10", "setting": "[2]; 0.4 mg/kg", "result": "0.0 ± 0.0", "unit": "mm3"},
      {"measurement": "Average Tumor Size (mm3) ± SEM on Day 14", "setting": "[2]; 0.4 mg/kg", "result": "8.1 ± 4.4", "unit": "mm3"},
      {"measurement": "Average Tumor Size (mm3) ± SEM on Day 18", "setting": "[2]; 0.4 mg/kg", "result": "47.1 ± 17.0", "unit": "mm3"},
      {"measurement": "tumor growth (in words)", "setting": "[2]; B16/BCMA, 0.4 or 0.04 mg/kg, three doses", "result": "suppress the growth of both tumor lines in a dose-dependent manner"},
      {"measurement": "Average Tumor Size (mm3) ± SEM on Day 5", "setting": "[3]; MC38/BCMA Tumor, 0.04 mg/kg, Day 5", "result": "11.9 ± 2.9", "unit": "mm3"},
      {"measurement": "Average Tumor Size (mm3) ± SEM on Day 10", "setting": "[3]; MC38/BCMA Tumor, 0.04 mg/kg", "result": "66.7 ± 22.5", "unit": "mm3"},
      {"measurement": "Average Tumor Size (mm3) ± SEM on Day 14", "setting": "[3]; MC38/BCMA Tumor, 0.04 mg/kg", "result": "273.3 ± 115.3", "unit": "mm3"},
      {"measurement": "Average Tumor Size (mm3) ± SEM on Day 18", "setting": "[3]; MC38/BCMA Tumor, 0.04 mg/kg", "result": "641.5 ± 309.8", "unit": "mm3"},
      {"measurement": "Average Tumor Size (mm3) ± SEM on Day 10", "setting": "[3]; MC38/BCMA Tumor, 0.4 mg/kg", "result": "0.0 ± 0.0", "unit": "mm3"},
      {"measurement": "Average Tumor Size (mm3) ± SEM on Day 14", "setting": "[3]; MC38/BCMA Tumor, 0.4 mg/kg", "result": "2.9 ± 2.9", "unit": "mm3"},
      {"measurement": "Average Tumor Size (mm3) ± SEM on Day 18", "setting": "[3]; MC38/BCMA Tumor, 0.4 mg/kg", "result": "7.5 ± 7.5", "unit": "mm3"},
      {"measurement": "tumor growth (in words)", "setting": "[3]; MC38/BCMA, 0.4 or 0.04 mg/kg, three doses", "result": "suppress the growth of both tumor lines in a dose-dependent manner"},
      {"measurement": "anti-tumor efficacy of the combination (in words)", "setting": "[4]", "result": "superior anti-tumor efficacy"}
    ]},
    {"substance": "REGN5459: anti-BCMA×anti-CD3 bispecific antibody: BCMA HCVR of mAb21581 (SEQ 66), CD3 HCVR of mAb7221G20 (SEQ 98), common LCVR SEQ 82", "values": [
      {"measurement": "ka", "setting": "[5]", "result": 223000, "unit": "M⁻¹ s⁻¹"},
      {"measurement": "kd", "setting": "[5]", "result": 0.00864, "unit": "s⁻¹"}
    ]}
  ]
}
